Measurements published in patent US12414961B2, “Substituted nucleosides and nucleotides for treating viral infections” (priority 2013, dated 2025).

Columns and labels:
Influenza A H1N1 = Influenza A H1N1 antiviral assay; format: cell-based; settings: Influenza A virus, H1N1, read-out: Influenza A H1N1 EC50
Influenza A H3N2 = Influenza A H3N2 antiviral assay; format: cell-based; settings: Influenza A virus, H3N2, read-out: Influenza A H3N2 EC50
[1] = test system: Influenza A H5N1 (low path); experiment: microbe, parasite or virus in culture; format: cell-based; settings: H5N1, read-out: Influenza A H5N1 (low path) EC50
Influenza B = Influenza B antiviral assay; format: cell-based; settings: Influenza B virus
RSV = RSV antiviral assay; format: cell-based; settings: human respiratory syncytial virus
SARS = experiment: microbe, parasite or virus in culture; format: cell-based; settings: Severe acute respiratory syndrome coronavirus, read-out: SARS EC50
Measles = Measles antiviral assay; format: cell-based, Measles virus; settings: Measles morbillivirus
CHIK Virus = CHIK Virus screening assay; format: cell-based, CHIKV; settings: Chikungunya virus, read-out: CHIK Virus EC50
Dengue Virus = Dengue Virus screening assay; format: cell-based, DENV
RVFV = experiment: microbe, parasite or virus in culture; format: cell-based; settings: Rift Valley fever virus, read-out: RVFV EC50
Tacaribe Virus = experiment: microbe, parasite or virus in culture; format: cell-based, TCRV; settings: Mammarenavirus tacaribeense, read-out: Tacaribe Virus EC50
VEEV = experiment: microbe, parasite or virus in culture; format: cell-based; settings: Venezuelan equine encephalitis virus, read-out: VEEV EC50
West Nile Virus = West Nile Virus screening assay; format: cell-based, WNV; settings: read-out: West Nile Virus EC50
Cytotoxicity (CC50) CEM = settings: human, CEM cells
[2] = Cytotoxicity (CC50) Huh-7; settings: human, Huh-7 cells
[3] = Cytotoxicity (CC50) HepG2; settings: human, HepG2 cells
[4] = Cytotoxicity in Huh-7 cells (Dengue assay); settings: human, Huh-7 cells
Dengue Type 2 [5] = experiment: Anti-Dengue virus cytoprotection assay, Huh-7 cells; settings: Huh-7, read-out: Dengue Type 2 Huh-7 Cells (EC50 uM)
[6] = Cytotoxicity in Vero cells (Dengue assay); settings: African green monkey
Dengue Type 2 [7] = experiment: Anti-Dengue virus cytoprotection assay, Vero cells; settings: read-out: Dengue Type 2 Vero Cells (EC50 uM)
A204 = experiment: Cytotoxicity (CC50) A204; format: cell-based; settings: A204
Huh-7 = experiment: Cytotoxicity (CC50) Huh-7; settings: read-out: Cytotoxicity (CC50 uM) Huh-7; Huh-7
HepG2 = experiment: Cytotoxicity (CC50) HepG2; settings: read-out: Cytotoxicity (CC50 uM) HepG2; HepG2
BxPC3 = experiment: Cytotoxicity (CC50) BxPC3; settings: read-out: Cytotoxicity (CC50 uM) BxPC3; BxPC3
CEM = experiment: Cytotoxicity (CC50) CEM; settings: read-out: Cytotoxicity (CC50 uM) CEM; CEM
Huh-7 cells = experiment: Cytotoxicity in Huh-7 cells of the HCV replicon assay; settings: read-out: Huh-7 cells (CC50 uM)
GT1b replicon cells = experiment: Cytotoxicity in GT1b replicon cells; format: cell-based
IEC-6 = experiment: Cytotoxicity (CC50) IEC-6; format: cell-based; settings: IEC-6
H9c = experiment: Cytotoxicity (CC50) H9c; format: cell-based; settings: H9c

SMILES: Nc1ccn([C@@H]2O[C@H](CO)[C@H](O)C2F)c(=S)n1 (stereo partly drawn) [EFVX-01857]
- EC50 (Influenza A H1N1): > 100 µM
- EC50 (Influenza A H3N2): > 100 µM
- EC50 [1]: > 100 µM
- EC50 (Influenza B): > 100 µM
- EC50 (RSV): > 100 µM
- EC50 (SARS): > 87 µM
- EC50 (Measles): > 100 µM
- EC50 (CHIK Virus): > 100 µg/mL
- EC50 (Dengue Virus): > 100 µg/mL
- EC50 (RVFV): > 100 µg/mL
- EC50 (Tacaribe Virus): > 100 µg/mL
- EC50 (VEEV): > 100 µg/mL
- EC50 (West Nile Virus): > 100 µg/mL

SMILES: CC(C)OC(=O)[C@H](C)NP(=O)(OC[C@@]1(N=[N+]=[N-])O[C@@H](n2ccc(=S)[nH]c2=O)C(O)[C@H]1O)Oc1ccccc1 (stereo partly drawn)
- CC50 (Cytotoxicity (CC50) CEM): 229 µM
- CC50 [2]: > 400 µM
- CC50 [3]: > 400 µM
- CC50 [4]: > 100 µM
- EC50 (Dengue Type 2 [5]): 4.82 µM

SMILES: CC(C)OC(=O)[C@H](C)N[P@@](=O)(OC[C@H]1O[C@@H](n2ccc(=O)[nH]c2=S)C(C)(O)[C@H]1O)Oc1ccccc1 (stereo partly drawn)
- CC50 (Cytotoxicity (CC50) CEM): > 400 µM
- CC50 [2]: > 400 µM
- CC50 [3]: > 400 µM
- CC50 [6]: > 100 µM
- CC50 [4]: > 100 µM
- EC50 (Dengue Type 2 [7]): 56.2 µM
- EC50 (Dengue Type 2 [5]): 24.9 µM

SMILES: CC(C)OC(=O)[C@H](C)NP(=O)(OC[C@H]1O[C@@H](n2ccc(=O)[nH]c2=S)C(C)[C@H]1O)Oc1ccccc1 (stereo partly drawn)
- CC50 (Cytotoxicity (CC50) CEM): 259 µM
- CC50 [2]: > 400 µM
- CC50 [3]: > 400 µM
- CC50 [4]: > 100 µM
- EC50 (Dengue Type 2 [5]): 6.07 µM

SMILES: CC(C)OC(=O)[C@H](C)NP(=O)(OC[C@H]1O[C@@H](n2ccc(=O)[nH]c2=[Se])[C@](C)(O)C1O)Oc1ccccc1 (stereo partly drawn)
- CC50 (A204): > 400 µM
- CC50 (Huh-7): > 100 µM
- CC50 (HepG2): > 400 µM
- CC50 (BxPC3): > 400 µM

SMILES: C[C@@]1(F)C(O)[C@@H](CO)O[C@H]1n1ccc(=S)[nH]c1=O (stereo partly drawn)
- CC50 (CEM): > 400 µM
- CC50 (Huh-7): > 400 µM
- CC50 (HepG2): > 400 µM

SMILES: C[C@H](NP(=O)(O)OC[C@H]1O[C@@H](n2ccc(=O)[nH]c2=S)[C@](C)(O)C1O)C(=O)O (stereo partly drawn)
- CC50 (CEM): > 400 µM
- CC50 (Huh-7): > 400 µM
- CC50 (HepG2): > 400 µM
- CC50 (Huh-7 cells): > 100 µM

SMILES: CC(C)OC(=O)[C@H](C)N[P@](=O)(OC[C@H]1O[C@@H](n2ccc(=O)[nH]c2=O)[C@](C)(F)C1O)Oc1ccccc1 (stereo partly drawn) [drawing 373]
- CC50 (CEM): > 400 µM
- CC50 (Huh-7): 279 µM
- CC50 (HepG2): 365 µM

SMILES: C#C[C@]1(COP(=O)(N[C@@H](C)C(=O)OC(C)C)Oc2ccccc2)O[C@@H](n2ccc(=O)[nH]c2=S)C(O)[C@H]1O (stereo partly drawn)
- CC50 (Cytotoxicity (CC50) CEM): > 400 µM
- CC50 [2]: > 400 µM
- CC50 [3]: > 400 µM
- CC50 [4]: > 100 µM
- EC50 (Dengue Type 2 [5]): > 100 µM

SMILES: C[C@@]1(O)C(O)[C@@H](CO)O[C@H]1n1ccc(=S)[nH]c1=O (stereo partly drawn)
- CC50 (CEM): > 400 µM
- CC50 (Huh-7): > 100 µM
- CC50 (HepG2): > 400 µM
- CC50 (BxPC3): > 100 µM

SMILES: CC(C)OC(=O)[C@H](C)NP(=O)(OC[C@H]1O[C@@H](n2ccc(=O)[nH]c2=S)[C@](C)(O)C1O)Oc1ccccc1 (stereo partly drawn) [drawing 383]
- CC50 (GT1b replicon cells): > 10 µM

SMILES: CC(C)OC(=O)[C@H](C)NP(=O)(OC[C@H]1O[C@@H](n2ccc(=S)[nH]c2=O)[C@@H](O)C1O)Oc1ccccc1 (stereo partly drawn)
- CC50 (HepG2): > 400 µM

SMILES: CC(C)OC(=O)[C@H](C)NP(=O)(OC[C@H]1O[C@@H](n2ccc(=O)[nH]c2=S)[C@](C)(O)C1O)Oc1ccccc1 (stereo partly drawn) [drawing 366]
- CC50 (A204): 98 µM
- CC50 (IEC-6): > 200 µM
- CC50 (H9c): > 200 µM
- CC50 (CEM): > 300 µM
- CC50 (Huh-7): > 400 µM
- CC50 (HepG2): > 400 µM
- CC50 (BxPC3): > 300 µM

SMILES: CC(C)OC(=O)[C@H](C)NP(=O)(OC[C@@]1(N=[N+]=[N-])O[C@@H](n2ccc(=S)[nH]c2=O)[C@@H](O)C1O)Oc1ccccc1 (stereo partly drawn)
- CC50 (CEM): 229 µM
- CC50 (Huh-7): > 400 µM
- CC50 (HepG2): > 400 µM
- CC50 (Huh-7 cells): > 100 µM
